Test results published in the NIST ThermoML archive (doi:10.1016/j.jct.2005.04.005).

Experiment: mn = molality of the nth substance listed, in mol/kg
Conditions: 101 kPa, Liquid

C1COCCOCCOCCOCCOCCO1 [1,4,7,10,13,16-hexaoxacyclooctadecane] + O
Conditions | mass density, 293.15 K [kg/m3] | mass density, 295.15 K [kg/m3] | mass density, 297.15 K [kg/m3] | mass density, 298.15 K [kg/m3] | mass density, 299.15 K [kg/m3] | mass density, 301.15 K [kg/m3] | mass density, 303.15 K [kg/m3] | mass density, 308.15 K [kg/m3] | mass density, 313.15 K [kg/m3] | speed of sound, 298.15 K [m/s]
m1 = 0.0001 | – | – | – | 997.047 | – | – | – | – | – | –
m1 = 0.09578 | 1002.26 | 1001.8 | 1001.29 | 1000.98 | 1000.71 | 1000.12 | 999.519 | 997.836 | 995.959 | –
m1 = 0.0958 | – | – | – | 1000.98 | – | – | – | – | – | 1512.5
m1 = 0.1953 | 1006.34 | 1005.85 | 1005.3 | 1004.95 | 1004.66 | 1004.02 | 1003.4 | 1001.65 | 999.701 | 1527.2
m1 = 0.4197 | 1015.08 | 1014.51 | 1013.88 | 1013.44 | 1013.12 | 1012.39 | 1011.69 | 1009.76 | 1007.65 | 1557.3
m1 = 0.5091 | 1018.38 | 1017.79 | 1017.12 | 1016.66 | 1016.33 | 1015.56 | 1014.82 | 1012.82 | 1010.65 | 1568.3
m1 = 0.6046 | 1021.8 | 1021.17 | 1020.48 | 1019.99 | 1019.64 | 1018.84 | 1018.06 | 1015.99 | 1013.74 | 1579.6
m1 = 0.7192 | 1025.77 | 1025.1 | 1024.37 | 1023.86 | 1023.49 | 1022.65 | 1021.82 | 1019.66 | 1017.33 | 1592.7
m1 = 0.8244 | 1029.28 | 1028.57 | 1027.8 | 1027.28 | 1026.89 | 1026.01 | 1025.14 | 1022.9 | 1020.49 | 1604.2
m1 = 0.9881 | 1034.49 | 1033.73 | 1032.91 | 1032.37 | 1031.95 | 1031.02 | 1030.1 | 1027.73 | 1025.21 | 1621.4
m1 = 1.13 | 1038.8 | 1037.98 | 1037.12 | 1036.57 | 1036.13 | 1035.15 | 1034.18 | 1031.7 | 1029.09 | 1635.5
m1 = 1.296 | 1043.56 | 1042.68 | 1041.78 | 1041.22 | 1040.75 | 1039.72 | 1038.71 | 1036.12 | 1033.4 | 1651.2
m1 = 1.484 | 1048.63 | 1047.68 | 1046.73 | 1046.16 | 1045.66 | 1044.59 | 1043.54 | 1040.81 | 1037.98 | 1667.6
m1 = 1.643 | 1052.69 | 1051.69 | 1050.69 | 1050.12 | 1049.6 | 1048.48 | 1047.4 | 1044.56 | 1041.64 | 1680.3
m1 = 2.189 | 1064.99 | 1063.83 | 1062.7 | 1062.06 | 1061.5 | 1060.24 | 1059.05 | 1055.88 | 1052.65 | 1714.6
m1 = 2.803 | 1076.32 | 1075.11 | 1073.77 | 1073.02 | 1072.41 | 1071.01 | 1069.62 | 1066.1 | 1062.5 | 1742.3
